Drawing on BindingDB's records for doi:10.1016/0960-894X(95)00537-3 (1995), this text covers IC50 for 22 molecules.

This test has as its target Gastrin/cholecystokinin type B receptor (Cavia porcellus). In words: Inhibitory activity towards binding of [125I]Bolton-Hunter-CCK-8 to CCKB receptor in guinea pig cortical tissue.

Some results are limits rather than exact numbers.

`Cc1cccc(NC(=O)N[C@H](CCC(=O)OCc2ccccc2)C(=O)N2CCC(NC(=O)c3ccccc3)CC2)c1` [5-(4-Benzoylamino-piperidin-1-yl)-5-(R)-oxo-4-(3-m-tolyl-ureido)-pentanoic acid benzyl ester] returned an IC50 above 10000 nM.

On to `Cc1cccc(NC(=O)N[C@H](COC(=O)N(C)C)C(=O)N2CCC(C(=O)c3ccccc3)CC2)c1` [Dimethyl-carbamic acid (R)-3-(4-benzoyl-piperidin-1-yl)-3-oxo-2-(3-m-tolyl-ureido)-propyl ester], for which the half-maximal inhibitory concentration (IC50) was 1500 nM.

Take `Cc1cccc(NC(=O)N[C@H](CCC(=O)OCc2ccccc2)C(=O)N2CCC(C(=O)Nc3ccccc3)CC2)c1` [5-(R)-Oxo-5-(4-phenylcarbamoyl-piperidin-1-yl)-4-(3-m-tolyl-ureido)-pentanoic acid benzyl ester]: the concentration for half-maximal inhibition (IC50) was found to be 2000 nM.

`Cc1cccc(NC(=O)N[C@H](COC(=O)N2CCCC2)C(=O)N2CCC(C(=O)c3ccccc3)CC2)c1` [Pyrrolidine-1-carboxylic acid (R)-3-(4-benzoyl-piperidin-1-yl)-3-oxo-2-(3-m-tolyl-ureido)-propyl ester] came in with an IC50 of 100 nM. This IC50 is about 20-fold lower than that of the molecule before.

`Cc1cccc(NC(=O)N[C@H](COC(=O)N2CCOCC2)C(=O)N2CCC(C(=O)c3ccccc3)CC2)c1` [Morpholine-4-carboxylic acid (R)-3-(4-benzoyl-piperidin-1-yl)-3-oxo-2-(3-m-tolyl-ureido)-propyl ester] showed a concentration for half-maximal inhibition (IC50) of 180 nM. This IC50 lies about 1.8-fold higher than the previous one.

`CC(=O)C1CCN(C(=O)[C@@H](COCc2ccccc2)NC(=O)Nc2cccc(C)c2)CC1` [1-[(R)-2-(4-Acetyl-piperidin-1-yl)-1-benzyloxymethyl-2-oxo-ethyl]-3-m-tolyl-urea]: the IC50 is above 6900 nM.

Consider `Cc1cccc(NC(=O)N[C@H](COCc2ccccc2)C(=O)N2CCC(Cc3ccccc3)CC2)c1` [1-[(R)-1-Benzyloxymethyl-2-(4-benzyl-piperidin-1-yl)-2-oxo-ethyl]-3-m-tolyl-urea], for which the IC50 is above 5900 nM.

Consider `Cc1cccc(NC(=O)N[C@H](COCc2ccccc2)C(=O)N2CCC(C(=O)c3ccccc3)CC2)c1` [1-[(R)-2-(4-Benzoyl-piperidin-1-yl)-1-benzyloxymethyl-2-oxo-ethyl]-3-m-tolyl-urea], for which the IC50 turned out to be 300 nM.

Molecule `Cc1cccc(NC(=O)N[C@H](COC(=O)N2CCCC2)C(=O)N2CCC(C(=O)Nc3ccccc3)CC2)c1` [Pyrrolidine-1-carboxylic acid (R)-3-oxo-3-(4-phenylcarbamoyl-piperidin-1-yl)-2-(3-m-tolyl-ureido)-propyl ester] returned an IC50 of 34 nM.

On to `CC(C)(C)OC(=O)N[C@@H](Cc1c[nH]c2ccccc12)C(=O)N1CCC(C(=O)c2ccccc2)CC1` [[(S)-2-(4-Benzoyl-piperidin-1-yl)-1-(1H-indol-3-ylmethyl)-2-oxo-ethyl]-carbamic acid tert-butyl ester], for which the IC50 was above 10000 nM.

`Cc1cccc(NC(=O)N[C@H](CCCc2ccccc2)C(=O)N2CCC(C(=O)c3ccccc3)CC2)c1` [1-{1-[(R)-(4-Benzoyl-piperidin-1-yl)-oxo-methyl]-4-phenyl-butyl}-3-m-tolyl-urea] yielded an IC50 of 1100 nM.

Consider `CC(C)C[C@H](NC(=O)[C@H](Cc1c[nH]c2ccccc12)NC(=O)OC(C)(C)C)C(=O)N1CCC(C(=O)c2ccccc2)CC1` [[(S)-1-[(S)-1-(4-Benzoyl-piperidine-1-carbonyl)-3-methyl-butylcarbamoyl]-2-(1H-indol-3-yl)-ethyl]-carbamic acid tert-butyl ester], for which the IC50 was 912 nM.

Molecule `Cc1cccc(NC(=O)N[C@H](COC(=O)Nc2ccccc2)C(=O)N2CCC(C(=O)c3ccccc3)CC2)c1` [Phenyl-carbamic acid (R)-3-(4-benzoyl-piperidin-1-yl)-3-oxo-2-(3-m-tolyl-ureido)-propyl ester] had an IC50 of 120 nM.

`Cc1cccc(NC(=O)N[C@H](COCc2ccccc2)C(=O)N2CCC(C(=O)Nc3ccccc3)CC2)c1` [1-[(R)-3-Benzyloxy-2-(3-m-tolyl-ureido)-propionyl]-piperidine-4-carboxylic acid phenylamide] came in with an IC50 of 160 nM. The IC50 values of the last two molecules are within 1.5-fold of each other.

Molecule `Cc1cccc(NC(=O)N[C@H](CCc2ccccc2)C(=O)N2CCC(C(=O)c3ccccc3)CC2)c1` [1-[(R)-1-(4-Benzoyl-piperidine-1-carbonyl)-3-phenyl-propyl]-3-m-tolyl-urea] gave a half-inhibitory concentration (IC50) of 3900 nM.

Molecule `CCCC[C@@H](NC(=O)Nc1cccc(C)c1)C(=O)N1CCC(C(=O)c2ccccc2)CC1` [1-[(R)-1-(4-Benzoyl-piperidine-1-carbonyl)-pentyl]-3-m-tolyl-urea] returned an IC50 of 4800 nM.

As to `Cc1cccc(NC(=O)N[C@H](CCC(=O)OCc2ccccc2)C(=O)N2CCN(C(=O)c3ccccc3)CC2)c1`, the IC50 was above 10000 nM.

For the molecule `Cc1cccc(NC(=O)N[C@H](COCc2ccccc2)C(=O)N2CCC(C(=O)c3ccc(F)cc3)CC2)c1` [1-{1-((R)-Benzyloxymethyl)-2-[4-(4-fluoro-benzoyl)-piperidin-1-yl]-2-oxo-ethyl}-3-m-tolyl-urea], the IC50 was 230 nM.

Regarding `Cc1cccc(NC(=O)N[C@@H](C(=O)N2CCC(C(=O)c3ccccc3)CC2)[C@@H](C)OCc2ccccc2)c1` [1-{(R)-1-[(R)-(4-Benzoyl-piperidin-1-yl)-oxo-methyl]-2-benzyloxy-propyl}-3-m-tolyl-urea], the IC50 was found to be 440 nM.

For `CC(Cc1c[nH]c2ccccc12)(NC(=O)OC1[C@H]2C[C@@H]3C[C@@H](C[C@H]1C3)C2)C(=O)N1CCC(C(=O)c2ccccc2)CC1` (some centres not stated) [[2-(4-Benzoyl-piperidin-1-yl)-1-(1H-indol-3-ylmethyl)-1-methyl-2-oxo-ethyl]-carbamic acid adamantan-2-yl ester], the IC50 was determined as 3400 nM.

The molecule `Cc1cccc(NC(=O)N[C@H](CS(=O)(=O)Cc2ccccc2)C(=O)N2CCC(C(=O)c3ccccc3)CC2)c1` [1-[(S)-2-(4-Benzoyl-piperidin-1-yl)-2-oxo-1-phenylmethanesulfonylmethyl-ethyl]-3-m-tolyl-urea] showed an IC50 of 810 nM.

`CC(C)C[C@H](NC(=O)[C@H](Cc1c[nH]c2ccccc12)NC(=O)OC(C)(C)C)C(=O)N1CCC(Cc2ccccc2)CC1` [[(S)-1-[(S)-1-(4-Benzyl-piperidine-1-carbonyl)-3-methyl-butylcarbamoyl]-2-(1H-indol-3-yl)-ethyl]-carbamic acid tert-butyl ester] had a half-maximal inhibitory concentration (IC50) above 10000 nM.
